Measurements published in PubChem BioAssay AID1259407 (Chemical Carcinogenesis Research Information System (CCRIS), 2018).
Active and inactive are the calls of the source. How the calls were made is not given here.

Test system: CCRIS mutagenicity, Ames/micronucleus/aberration tests
Experiment: CCRIS mutagenicity studies
[1] = Test System: AMES SALMONELLA TYPHIMURIUM, Strain/Indicator: TA97, Metabolic Activation: HAMSTER, LIVER, S-9, AROCLOR 1254 (30%), Method: PREINCUBATION
[2] = Test System: AMES SALMONELLA TYPHIMURIUM, Strain/Indicator: TA97, Metabolic Activation: NONE, Method: PREINCUBATION
[3] = Test System: AMES SALMONELLA TYPHIMURIUM, Strain/Indicator: TA97, Metabolic Activation: RAT, LIVER, S-9, AROCLOR 1254 (10%), Method: PREINCUBATION
[4] = Test System: AMES SALMONELLA TYPHIMURIUM, Strain/Indicator: TA98, Metabolic Activation: HAMSTER, LIVER, S-9, AROCLOR 1254 (10%), Method: PREINCUBATION
[5] = Test System: AMES SALMONELLA TYPHIMURIUM, Strain/Indicator: TA98, Metabolic Activation: HAMSTER, LIVER, S-9, AROCLOR 1254 (30%), Method: PREINCUBATION
[6] = Test System: AMES SALMONELLA TYPHIMURIUM, Strain/Indicator: TA98, Metabolic Activation: NONE, Method: PREINCUBATION
[7] = Test System: AMES SALMONELLA TYPHIMURIUM, Strain/Indicator: TA98, Metabolic Activation: RAT, LIVER, S-9, AROCLOR 1254 (10%), Method: PREINCUBATION
[8] = Test System: AMES SALMONELLA TYPHIMURIUM, Strain/Indicator: TA98, Metabolic Activation: RAT, LIVER, S-9, AROCLOR 1254 (30%), Method: PREINCUBATION
[9] = Test System: AMES SALMONELLA TYPHIMURIUM, Strain/Indicator: TA100, Metabolic Activation: HAMSTER, LIVER, S-9, AROCLOR 1254 (10%), Method: PREINCUBATION
[10] = Test System: AMES SALMONELLA TYPHIMURIUM, Strain/Indicator: TA100, Metabolic Activation: HAMSTER, LIVER, S-9, AROCLOR 1254 (30%), Method: PREINCUBATION
[11] = Test System: AMES SALMONELLA TYPHIMURIUM, Strain/Indicator: TA100, Metabolic Activation: NONE, Method: PREINCUBATION
[12] = Test System: AMES SALMONELLA TYPHIMURIUM, Strain/Indicator: TA100, Metabolic Activation: RAT, LIVER, S-9, AROCLOR 1254 (10%), Method: PREINCUBATION
[13] = Test System: AMES SALMONELLA TYPHIMURIUM, Strain/Indicator: TA100, Metabolic Activation: RAT, LIVER, S-9, AROCLOR 1254 (30%), Method: PREINCUBATION
[14] = Test System: AMES SALMONELLA TYPHIMURIUM, Strain/Indicator: TA100, Metabolic Activation: RAT, LIVER, S-9, AROCLOR 1254, Method: PREINCUBATION
[15] = Test System: AMES SALMONELLA TYPHIMURIUM, Strain/Indicator: TA1535, Metabolic Activation: NONE, Method: PREINCUBATION
[16] = Test System: AMES SALMONELLA TYPHIMURIUM, Strain/Indicator: TA1535, Metabolic Activation: RAT, LIVER, S-9, AROCLOR 1254 (10%), Method: PREINCUBATION
[17] = Test System: AMES SALMONELLA TYPHIMURIUM, Strain/Indicator: TA1537, Metabolic Activation: NONE, Method: PREINCUBATION
[18] = Test System: Mouse lymphoma, Strain/Indicator: L5178Y (tk+/tk-), Metabolic Activation: Rat, Liver, S-9, Aroclor 1254, Method: Suspension/plate
[19] = Test System: AMES SALMONELLA TYPHIMURIUM, Strain/Indicator: TA100, Metabolic Activation: NONE, Method: STANDARD PLATE

SMILES: c1ccsc1
- mutagenic call (Test System: AMES SALMONELLA TYPHIMURIUM, Strain/Indicator: TA97, Metabolic Activation: HAMSTER, LIVER, AROCLOR 1254 (10%), Method: PREINCUBATION): inactive; negative
- mutagenic call [1]: inactive; negative
- mutagenic call [2]: inactive; negative
- mutagenic call [3]: inactive; negative
- mutagenic call (Test System: AMES SALMONELLA TYPHIMURIUM, Strain/Indicator: TA97, Metabolic Activation: RAT, LIVER, S-9, AROCLOR 1254 (30%), Method: PREINCUBATION): inactive; negative
- mutagenic call [4]: inactive; negative
- mutagenic call [5]: inactive; negative
- mutagenic call [6]: inactive; negative
- mutagenic call [7]: inactive; negative
- mutagenic call [8]: inactive; negative
- mutagenic call (Test System: AMES SALMONELLA TYPHIMURIUM, Strain/Indicator: TA98, Metabolic Activation: RAT, LIVER, S-9, AROCLOR 1254, Method: PREINCUBATION): inactive; negative
- mutagenic call [9]: inactive; negative
- mutagenic call [10]: inactive; negative
- mutagenic call [11]: inactive; negative
- mutagenic call [12]: inactive; negative
- mutagenic call [13]: inactive; negative
- mutagenic call [14]: inactive; negative
- mutagenic call (Test System: AMES SALMONELLA TYPHIMURIUM, Strain/Indicator: TA102, Metabolic Activation: NONE, Method: PREINCUBATION): inactive; negative
- mutagenic call (Test System: AMES SALMONELLA TYPHIMURIUM, Strain/Indicator: TA102, Metabolic Activation: RAT, LIVER, S-9, AROCLOR 1254, Method: PREINCUBATION): inactive; negative
- mutagenic call (Test System: AMES SALMONELLA TYPHIMURIUM, Strain/Indicator: TA1535, Metabolic Activation: HAMSTER, LIVER, S-9, AROCLOR 1254 (10%), Method: PREINCUBATION): inactive; negative
- mutagenic call (Test System: AMES SALMONELLA TYPHIMURIUM, Strain/Indicator: TA1535, Metabolic Activation: HAMSTER, LIVER, S-9, AROCLOR 1254 (30%), Method: PREINCUBATION): inactive; negative
- mutagenic call [15]: inactive; negative
- mutagenic call [16]: inactive; negative
- mutagenic call (Test System: AMES SALMONELLA TYPHIMURIUM, Strain/Indicator: TA1535, Metabolic Activation: RAT, LIVER, S-9, AROCLOR 1254 (30%), Method: PREINCUBATION): inactive; negative
- mutagenic call (Test System: AMES SALMONELLA TYPHIMURIUM, Strain/Indicator: TA1537, Metabolic Activation: HAMSTER, LIVER, S-9, AROCLOR 1254 (10%), Method: PREINCUBATION): inactive; negative
- mutagenic call [17]: inactive; negative
- mutagenic call (Test System: AMES SALMONELLA TYPHIMURIUM, Strain/Indicator: TA1537, Metabolic Activation: RAT, LIVER, S-9, AROCLOR 1254 (10%), Method: PREINCUBATION): inactive; negative
- mutagenic call (Test System: Mouse lymphoma, Strain/Indicator: L5178Y (tk+/tk-), Metabolic Activation: None, Method: Suspension/plate): active; positive
- mutagenic call [18]: active; inconclusive (previous evaluation positive)

SMILES: COc1nc(C(Cl)(Cl)Cl)c(Cl)c(OC)c1Cl
- mutagenic call [18]: active; positive

SMILES: CN(C)CCNC(=O)c1cccc2nc(-c3ccccc3)oc12
- mutagenic call (Test System: AMES SALMONELLA TYPHIMURIUM, Strain/Indicator: TA1537, Metabolic Activation: NONE, Method: STANDARD PLATE): inactive; negative

SMILES: [O-][n+]1cccc2c1[C@H]1O[C@H]1C=C2
- mutagenic call [19]: inactive; negative
- mutagenic call (Test System: AMES SALMONELLA TYPHIMURIUM, Strain/Indicator: TA100, Metabolic Activation: RAT, LIVER, S-9, AROCLOR 1254 (10 OR 20%), Method: STANDARD PLATE): inactive; negative

SMILES: CC=C(C)C#N
- mutagenic call (Test System: AMES SALMONELLA TYPHIMURIUM, Strain/Indicator: TA97, Metabolic Activation: HAMSTER, LIVER, S-9, AROCLOR 1254 (10 OR 30%), Method: PREINCUBATION): inactive; negative
- mutagenic call [1]: inactive; negative
- mutagenic call [2]: inactive; negative
- mutagenic call [3]: inactive; negative
- mutagenic call [4]: inactive; negative
- mutagenic call [5]: inactive; negative
- mutagenic call [6]: inactive; negative
- mutagenic call [7]: inactive; negative
- mutagenic call [8]: inactive; negative
- mutagenic call [9]: inactive; negative
- mutagenic call [10]: inactive; negative
- mutagenic call [11]: inactive; negative
- mutagenic call [12]: inactive; negative
- mutagenic call [13]: inactive; negative
- mutagenic call (Test System: AMES SALMONELLA TYPHIMURIUM, Strain/Indicator: TA1535, Metabolic Activation: HAMSTER, LIVER, S-9, AROCLOR 1254 (10 OR 30%), Method: PREINCUBATION): inactive; negative
- mutagenic call [15]: inactive; negative
- mutagenic call [16]: inactive; negative
- mutagenic call (Test System: AMES SALMONELLA TYPHIMURIUM, Strain/Indicator: TA1537, Metabolic Activation: HAMSTER, LIVER, S-9, AROCLOR 1254 (30%), Method: PREINCUBATION): inactive; negative
- mutagenic call [17]: inactive; negative
- mutagenic call (Test System: AMES SALMONELLA TYPHIMURIUM, Strain/Indicator: TA1537, Metabolic Activation: RAT, LIVER, S-9, AROCLOR 1254 (30%), Method: PREINCUBATION): inactive; negative

SMILES: O=NN(c1ccc([N+](=O)[O-])cc1)C1OC[C@@H](O)[C@H](O)[C@H]1O (stereo not given in full)
- mutagenic call [19]: active; positive

SMILES: CN(CCC#N)c1ccc(N=Nc2ccccc2)cc1
- mutagenic call (Test System: AMES SALMONELLA TYPHIMURIUM, Strain/Indicator: TA98, Metabolic Activation: RAT, LIVER, S-9, AROCLOR, Method: PREINCUBATION): active; positive

SMILES: Oc1cc2ccccc2c2ccccc12
- mutagenic call (Test System: AMES SALMONELLA TYPHIMURIUM, Strain/Indicator: TA98, Metabolic Activation: RAT, LIVER, S-9, AROCLOR 1254, Method: STANDARD PLATE): inactive; negative
- mutagenic call (Test System: AMES SALMONELLA TYPHIMURIUM, Strain/Indicator: TA1535, Metabolic Activation: RAT, LIVER, S-9, AROCLOR 1254, Method: STANDARD PLATE): active; positive

SMILES: O=C(OCc1ccccc1[N+](=O)[O-])c1ccccc1
- mutagenic call [6]: inactive; negative
- mutagenic call [11]: inactive; negative
- mutagenic call [14]: inactive; negative
